Where two headings read alike, the source gives them in different places.
Assays:
Assay type in all cases: biochemical
[1] = target: Recombinant human JAK2 catalytic domain (Homo sapiens (Human), UniProt O60674); assay: JAK2 kinase assay (Z'-LYTE, Tyr 6 Peptide)
Description: (§1) JAK1/2/3 kinase assay are performed in vitro using Kit-Tyr 6 Peptide (Invitrogen, Cat. No. PV4122). TYK2 kinase assay are performed in vitro using Z′-LYTE™ Kinase Assay Kit-Tyr 3 Peptide (Invitrogen, Cat. No. PV3192). […] All compounds are initially tested at 8 different concentrations (1 μM down to 0.0003 μM) using a 1:3 serial dilution scheme.

[2] = target: Recombinant human JAK3 catalytic domain (Homo sapiens (Human), UniProt P52333); assay: JAK3 kinase assay (Z'-LYTE, Tyr 6 Peptide)
Chain of Recombinant human JAK3 catalytic domain (P52333 822-1111): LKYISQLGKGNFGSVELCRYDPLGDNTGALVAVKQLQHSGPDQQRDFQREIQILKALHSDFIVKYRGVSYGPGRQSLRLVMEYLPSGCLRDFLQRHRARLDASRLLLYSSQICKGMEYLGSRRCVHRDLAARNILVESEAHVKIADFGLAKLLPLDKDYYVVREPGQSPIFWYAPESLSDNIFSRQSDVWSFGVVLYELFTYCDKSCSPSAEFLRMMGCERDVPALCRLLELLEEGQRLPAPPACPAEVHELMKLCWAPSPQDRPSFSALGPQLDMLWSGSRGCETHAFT
Description: as §1

[3] = target: Recombinant human JAK1 catalytic domain (Homo sapiens (Human), UniProt P23458); assay: JAK1 kinase assay (Z'-LYTE, Tyr 6 Peptide); conditions: read-out: IC50 in JAK1 kinase assay
Chain of Recombinant human JAK1 catalytic domain (P23458 875-1153): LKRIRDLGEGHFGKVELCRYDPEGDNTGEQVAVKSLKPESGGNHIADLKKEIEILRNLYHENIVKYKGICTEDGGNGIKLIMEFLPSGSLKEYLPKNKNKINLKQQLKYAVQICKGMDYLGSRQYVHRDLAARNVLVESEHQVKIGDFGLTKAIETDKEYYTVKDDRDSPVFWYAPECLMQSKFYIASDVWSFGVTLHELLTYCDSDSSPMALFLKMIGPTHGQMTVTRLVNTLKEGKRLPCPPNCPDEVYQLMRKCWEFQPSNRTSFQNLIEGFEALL
Description: as §1

[4] = read-out: IC50 in JAK2 kinase assay
[5] = read-out: IC50 in JAK3 kinase assay

Chain of Recombinant human JAK2 catalytic domain (O60674 849-1124): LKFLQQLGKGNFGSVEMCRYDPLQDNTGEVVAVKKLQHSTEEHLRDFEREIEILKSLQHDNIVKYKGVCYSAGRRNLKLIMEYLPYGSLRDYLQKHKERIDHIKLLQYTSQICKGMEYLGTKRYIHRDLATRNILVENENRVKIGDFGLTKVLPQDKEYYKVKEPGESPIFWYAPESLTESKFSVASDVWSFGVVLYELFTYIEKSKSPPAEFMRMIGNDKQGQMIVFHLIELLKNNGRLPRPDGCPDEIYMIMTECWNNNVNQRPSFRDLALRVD

Structure (SMILES)	IC50 [1, 4] [nM]	IC50 [2, 5] [nM]	other results
CNS(=O)(=O)N(C)[C@@H]1CCN(c2ncnc3[nH]ccc23)C1 [Compound 47]	1 to 100		IC50 ([1]; read-out: JAK2 (enzyme, IC50)): 98 nM; IC50 ([2]; read-out: JAK3 (enzyme, IC50)): 157 nM
N#Cc1ccc(N[C@@H]2CCN(c3ncnc4[nH]ccc34)C2)nc1 [Compound 81]	1 to 100	100 to 1000	
CN(c1cnc(C#N)cn1)[C@@H]1CCN(c2ncnc3[nH]ccc23)C1 [Compound 84]		100 to 1000	
CN(c1ccc(NS(=O)(=O)Cc2ccccc2F)cn1)[C@@H]1CCN(c2ncnc3[nH]ccc23)C1 [Compound 219]			IC50 [3]: 1 to 100 nM
CN(C(=O)Nc1ccc(C#N)cc1)[C@@H]1CCN(c2ncnc3[nH]ccc23)C1 [Compound 17]	100 to 1000	100 to 1000	
CN(C(=O)Nc1ccc(Cl)cc1)[C@@H]1CCN(c2ncnc3[nH]ccc23)C1 [Compound 33]			IC50 [3]: 1 to 100 nM
CN(CCC#N)[C@@H]1CCN(c2ncnc3[nH]ccc23)C1 [Compound 64]	1 to 100	100 to 1000	
CN(c1ccc(S(=O)(=O)N[C@@H]2c3ccccc3C[C@H]2O)cn1)[C@@H]1CCN(c2ncnc3[nH]ccc23)C1 [Compound 233]			IC50 [3]: 1 to 100 nM
CN(c1ncccc1C#N)[C@@H]1CCN(c2ncnc3[nH]ccc23)C1 [Compound 159]	1 to 100	100 to 1000	
CN(c1ccc(C(=O)NCc2ccccc2)cc1F)[C@@H]1CCN(c2ncnc3[nH]ccc23)C1 [Compound 187]	1 to 100	100 to 1000	
CN(c1ccc(C(=O)N[C@H](CO)c2ccccc2)cn1)[C@@H]1CCN(c2ncnc3[nH]ccc23)C1 [Compound 174]	1 to 100	100 to 1000	
C[C@H](NC(=O)c1ccc(N(C)[C@@H]2CCN(c3ncnc4[nH]ccc34)C2)c(F)c1)c1ccccc1 [Compound 182]	1 to 100	1 to 100	
CN(c1ccc(NS(=O)(=O)c2cccnc2)cn1)[C@@H]1CCN(c2ncnc3[nH]ccc23)C1 [Compound 215]			IC50 [3]: 1 to 100 nM
CN(c1ccc(C#N)c(F)c1)[C@@H]1CCN(c2ncnc3[nH]ccc23)C1 [Compound 105]			IC50 ([1]; read-out: JAK2 (enzyme, IC50)): 48.7 nM; IC50 ([2]; read-out: JAK3 (enzyme, IC50)): 359 nM
CN(c1ccc([N+](=O)[O-])cn1)[C@@H]1CCN(c2ncnc3[nH]ccc23)C1 [Compound 70]	100 to 1000	100 to 1000	
CN(c1ccccn1)[C@@H]1CCN(c2ncnc3[nH]ccc23)C1 [Compound 156]	1 to 100	100 to 1000	
CN(c1ccc(C#N)cn1)[C@@H]1CCN(c2ccnc3[nH]ccc23)C1 [Compound 92]	1 to 100	100 to 1000	
C#CCN(c1cnc(C#N)cn1)[C@@H]1CCN(c2ncnc3[nH]ccc23)C1 [Compound 127]			IC50 [3]: 1 to 100 nM
CN(c1ccc(S(N)(=O)=O)cn1)[C@@H]1CCN(c2ncnc3[nH]ccc23)C1 [Compound 234]			IC50 ([2]; read-out: JAK3 (enzyme, IC50)): 86.3 nM
CN(C(=O)NC1CCOCC1)[C@@H]1CCN(c2ncnc3[nH]ccc23)C1 [Compound 36]			IC50 [3]: 1 to 100 nM
C#CCN(c1c(F)cc(C#N)cc1F)[C@@H]1CCN(c2ncnc3[nH]ccc23)C1 [Compound 129]	1 to 100	1 to 100	
CN(c1ccc2nc[nH]c2n1)[C@@H]1CCN(c2ncnc3[nH]ccc23)C1 [Compound 163, (R)—N-(1-(7H-pyrrolo[2,3-d]pyrimidin-4-yl)pyrrolidin-3-yl)-N-methyl-3H-imidazo[4,5-b]pyridin-5-amine]	1 to 100	100 to 1000	
COC(=O)c1ccc(N(C)[C@@H]2CCN(c3ncnc4[nH]ccc34)C2)nc1 [Compound 168, (R)-methyl 6-((1-(7H-pyrrolo[2,3-d]pyrimidin-4-yl)pyrrolidin-3-yl)(methyl)amino)nicotinate]	1 to 100	100 to 1000	
CN(c1ccc(C(=O)NC2CC2)cn1)[C@@H]1CCN(c2ncnc3[nH]ccc23)C1 [Compound 171, (R)-6-((1-(7H-pyrrolo[2,3-d]pyrimidin-4-yl)pyrrolidin-3-yl)(methyl)amino)-N-cyclopropylnicotinamide]	1 to 100	100 to 1000	
CCS(=O)(=O)N(C)[C@@H]1CCN(c2ncnc3[nH]ccc23)C1 [Compound 48]	1 to 100	100 to 1000	
C#CCN(c1ccc(C#N)cc1)[C@@H]1CCN(c2ncnc3[nH]ccc23)C1 [Compound 131]	1 to 100	100 to 1000	
CN(c1ccc(C(=O)NCCO)cn1)[C@@H]1CCN(c2ncnc3[nH]ccc23)C1 [Compound 190]	1 to 100	100 to 1000	
Cc1cc(Cl)nc(N(C)[C@@H]2CCN(c3ncnc4[nH]ccc34)C2)c1C#N [Compound 73]	1 to 100	100 to 1000	
CN(c1ncnc2ccccc12)[C@@H]1CCN(c2ncnc3[nH]ccc23)C1 [Compound 80]	1 to 100	100 to 1000	
CN(C(=O)N1CCCC1)[C@@H]1CCN(c2ncnc3[nH]ccc23)C1 [Compound 37]			IC50 [3]: 1 to 100 nM
